Changes are numbered by the printed parent chain.
Assays:
Assay type in all cases: biochemical
HIV-2 IN Q148R = target: T1, HIV-2 IN Q148R (Human immunodeficiency virus type 2 subtype B, UniProt Q89928, I1218V/I1301V/I1372V/M1455R/N1185G/N1438H/Q1316R/R1202K/R1392Q/T1348V/T1383A/V1460M); assay: susceptibility to RAL, site-directed mutant in N1 background; details: preliminary studies with high protein concentrations
T1 construct: His-tag (pET-15b) (N); made in house; host or cells: Escherichia coli BL21-CodonPlus (DE3)-RIPL
T1 sequence (Q89928 with tags, fused parts or gaps N1185G/R1202K/I1218V/I1301V/Q1316R/T1348V/I1372V/T1383A/R1392Q/N1438H/M1455R/V1460M): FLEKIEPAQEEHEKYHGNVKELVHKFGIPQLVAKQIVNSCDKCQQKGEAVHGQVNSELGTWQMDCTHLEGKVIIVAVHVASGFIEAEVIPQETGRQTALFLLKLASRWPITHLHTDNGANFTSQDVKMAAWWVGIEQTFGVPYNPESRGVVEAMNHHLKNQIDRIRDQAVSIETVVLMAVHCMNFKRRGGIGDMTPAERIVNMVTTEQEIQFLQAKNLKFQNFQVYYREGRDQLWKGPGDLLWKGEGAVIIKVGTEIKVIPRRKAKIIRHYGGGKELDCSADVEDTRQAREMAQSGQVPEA
Description: (§1) Primer 1: N1, N2, T1, T2, 5'-[…]-3'; N3, 5'-[…] […]-3'; T3-T7, 5'-[…]-3'. Primers 2: N1, 5'-[…]-3'; N2, 5'-[…] […]-3'; N3, 5'-[…] C-3'; T1, T2, 5'-[…]-3'; T3-T7, 5'-GGATC […] -3'.
(§2) The HIV-2 ODN substrate sequences were: UA: 5'-[…]-3'; U5B: 5'-[…]-3'; U5B-2: 5'-[…] […]-3'.

HIV-2 N1 IN = target: T2, HIV-2 N1 IN (Human immunodeficiency virus type 2 subtype B, UniProt Q89928, I1218V/I1301V/I1372V/M1455R/N1185G/N1438H/R1202K/R1392Q/T1348V/T1383A/V1460M); assay: strand transfer inhibition, IN from clinical isolate N1 (wild-type reference); details: IN from RAL-naive patient N1; 200 nM IN; 37°C; Mg2+
T2 construct: His-tag (pET-15b) (N); made in house; host or cells: Escherichia coli BL21-CodonPlus (DE3)-RIPL
T2 sequence (Q89928 1169-1464 N1185G/R1202K/I1218V/I1301V/T1348V/I1372V/T1383A/R1392Q/N1438H/M1455R/V1460M limits assumed): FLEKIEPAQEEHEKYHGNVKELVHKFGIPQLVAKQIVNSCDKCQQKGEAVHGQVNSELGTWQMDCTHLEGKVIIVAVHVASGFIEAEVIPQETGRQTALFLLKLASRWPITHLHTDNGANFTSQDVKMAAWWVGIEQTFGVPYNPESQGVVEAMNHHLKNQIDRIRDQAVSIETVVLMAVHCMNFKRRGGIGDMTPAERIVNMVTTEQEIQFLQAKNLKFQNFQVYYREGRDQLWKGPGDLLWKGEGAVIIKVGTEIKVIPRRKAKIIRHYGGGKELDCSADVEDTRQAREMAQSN
Protocol: (§3) The ST reaction was performed using a ^32P-labeled oligonucleotide mimicking the preprocessed substrate. Drug concentrations are indicated above each lane. […] Activity is expressed as a % of control without drug. Experiments were repeated two times.
as §2

HIV-2 IN Y143C/N155H = target: T3, HIV-2 IN Y143C/N155H (Human immunodeficiency virus type 2 subtype B, UniProt Q89928, I1218V/I1301V/I1372V/M1455R/N1185G/N1323H/N1438H/R1202K/R1392Q/T1348V/T1383A/V1460M/Y1311C); assay: strand transfer inhibition, site-directed mutant in N1 background; details: Y143C/N155H double mutant in N1 background; 200 nM IN
T3 construct: His-tag (pET-15b) (N); made in house; host or cells: Escherichia coli BL21-CodonPlus (DE3)-RIPL
T3 sequence (Q89928 with tags, fused parts or gaps N1185G/R1202K/I1218V/I1301V/Y1311C/N1323H/T1348V/I1372V/T1383A/R1392Q/N1438H/M1455R/V1460M): T1 sequence (Q89928 with tags, fused parts or gaps N1185G/R1202K/I1218V/I1301V/Q1316R/T1348V/I1372V/T1383A/R1392Q/N1438H/M1455R/V1460M) with Y143C, R148Q, N155H
Protocol: (§4) Activity is expressed as a % of control without drug. Experiments were performed two times.
as §1, §2

HIV-2 N3 IN = target: T4, HIV-2 N3 IN (Human immunodeficiency virus type 2 subtype B, UniProt Q89928, A1457T/D1293E/D1331N/F1194Y/I1218V/I1301V/I1428V/K1172N/M1455R/N1185G/N1438H/Q1389K/R1202K/R1392Q/T1348A/T1383A); assay: strand transfer inhibition, IN from clinical isolate N3; details: IN from RAL-naive patient N3; 200 nM IN; 37°C; Mg2+
T4 construct: His-tag (pET-15b) (N); made in house; host or cells: Escherichia coli BL21-CodonPlus (DE3)-RIPL
T4 sequence (Q89928 1169-1461 K1172N/N1185G/F1194Y/R1202K/I1218V/D1293E/I1301V/D1331N/T1348A/T1383A/Q1389K/R1392Q/I1428V/N1438H/M1455R/A1457T): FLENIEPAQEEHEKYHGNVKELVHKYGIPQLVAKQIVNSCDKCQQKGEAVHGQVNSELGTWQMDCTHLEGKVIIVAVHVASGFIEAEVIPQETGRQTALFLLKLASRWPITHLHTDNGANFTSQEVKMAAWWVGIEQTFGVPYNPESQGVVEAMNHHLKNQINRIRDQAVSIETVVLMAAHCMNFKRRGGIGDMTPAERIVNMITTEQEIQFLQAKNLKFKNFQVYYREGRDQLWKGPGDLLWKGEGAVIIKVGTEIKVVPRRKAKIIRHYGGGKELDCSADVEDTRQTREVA
Protocol: as §3, §2

[1] = system: HIV-2 IN E92A/T97A/N155H (T1); assay: strand transfer inhibition, IN from clinical isolate T1; details: clinical isolate T1, N155H with substitutions at positions 92 and 97, 200 nM IN
Protocol: as §4, §2

HIV-2 N2 IN = target: T5, HIV-2 N2 IN (Human immunodeficiency virus type 2 subtype B, UniProt Q89928, I1301V/I1428V/M1455R/N1185G/N1438H/R1202K/R1392Q/T1348A/T1383N/V1343I/V1460M); assay: strand transfer inhibition, IN from clinical isolate N2; details: IN from RAL-naive patient N2; 200 nM IN; 37°C; Mg2+
T5 construct: His-tag (pET-15b) (N); made in house; host or cells: Escherichia coli BL21-CodonPlus (DE3)-RIPL
T5 sequence (Q89928 1169-1464 N1185G/R1202K/I1301V/V1343I/T1348A/T1383N/R1392Q/I1428V/N1438H/M1455R/V1460M limits assumed): T2 sequence (Q89928 1169-1464 N1185G/R1202K/I1218V/I1301V/T1348V/I1372V/T1383A/R1392Q/N1438H/M1455R/V1460M limits assumed) with V50I, V175I, V180A, V204I, A215N, I260V
Protocol: as §3, §2

## Cc1nnc(C(=O)NC(C)(C)c2nc(C(=O)NCc3ccc(F)cc3)c(O)c(=O)n2C)o1 [RAL, raltegravir]
HIV-2 IN Q148R
  susceptibility to RAL: not susceptible
HIV-2 N1 IN
  IC50: 23 nM
HIV-2 IN Y143C/N155H
  IC50: 290 nM
HIV-2 N3 IN
  IC50: 48 nM
[1]
  factor of increase of IC50 versus wild-type N1 IN: about 50
HIV-2 N2 IN
  IC50: 30 nM

Source: paper PMC3170264 (Retrovirology, 2011)
